Where “and” joins values, the source holds several entries; their conditions need not be identical. Identical values can stand only once.
System: NCI-H322M multicellular tumor spheroids, viability (% test/control)
Experiment: Anticancer human tumor NCI-H322M cell line growth inhibition;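 for viability, T/C: spheroids exposed to compound for seven days before readout; 100% = DMSO vehicle control wells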
Details: for viability, T/C: stronger effect = lower value
Source text: Multicellular complex tumor spheroid response to DNA repair inhibitors in combination with DNA-damaging drugs
This study explores the anticancer activities of DNA-damaging drugs and inhibitors of DNA damage repair, both as single agents and in combinations. Complex tumor spheroids comprised of malignant cells, endothelial cells and mesenchymal stem cells served as an in vitro model for human solid tumors. This model system incorporates physiologically relevant features and patient-derived or established malignant cell lines with clinically relevant genetic alterations from many tumor types. Twenty-six patient-derived or established malignant cell lines were evaluated representing sarcoma, melanoma, small cell lung cancer (SCLC), non-small cell lung cancer (NSCLC), as well as bladder, ovarian and pancreatic cancers. The concentration ranges selected for each drug and investigational agent were based upon clinically achievable concentrations if the clinical Cmax of the agent was known.
Compounds. The drugs and compounds olaparib (NSC753686), talazoparib (NSC767125), berzosertib (NSC777718), elimusertib (NSC800525), nedisertib (NSC802822), VX-984 (NSC792969), AZD-1390 (NSC803789), temozolomide (NSC362856), topotecan (NSC609699), trabectedin (NSC813783), staurosporine (NSC755774), and gemcitabine (NSC613327) were obtained from the National Cancer Institute (NCI) Developmental Therapeutics Program Chemical Repository. The FDA-approved anticancer drug set is available from the Developmental Therapeutics Program at https://dtp.cancer.gov/organization/dscb/obtaining/available_plates.htm. […] The stock solutions were prepared in dimethyl sulfoxide (DMSO, Sigma-Aldrich, St. Louis, MO, cat. D2650) at 400-fold the tested concentration and stored at -70 degrees C. Prior to their use, the stock solutions were diluted in fresh medium and the final DMSO concentration in the assay was 0.25% (v/v). All drugs and investigational agents were tested over a range starting from a high concentration at or near the clinical Cmax and decreasing in half-log increments. If the clinical Cmax for an agent had not been determined, the highest concentration tested was 10 microM.
Cell Lines. The patient-derived cancer cell (PDC) lines: 156681-154-R-J1-PDC, 283228-195-R-J1-PDC, 287954-098-R-J1-PDC, 292921-168-R-J2-PDC, 349418-098-R-PDC, 425362-245-T-J1-PDC, 556581-035-R-J1-PDC, and BL0293-F563-PDC were received from the NCI Patient-Derived Models Repository (PDMR, https://pdmr.cancer.gov). The established cell lines HS-SY-2 (RRID:CVCL_8719), MPNST, and SYO-1 (RRID:CVCL_7146) were obtained from the Sloan Kettering Institute. The alveolar soft parts sarcoma cell line ASPS-1 (RRID:CVCL_S738) was established at the NCI and grown from internal seed stocks. The following established cell lines were purchased from the American Type Culture Collection (ATCC, Manassas, VA): G-401 (ATCC, cat. CRL-1441, RRID:CVCL_0270), SW982 (ATCC, cat. HTB-93, RRID:CVCL_1734), VA-ES-BJ (ATCC, cat. CRL-2138, RRID:CVCL_1785), NCI-H719 (ATCC, cat. CRL-5837, RRID:CVCL_1582), NCI-H196 (ATCC, cat. CRL-5823, RRID:CVCL_1509), NCI-H841 (ATCC, cat. CRL-5845, RRID:CVCL_1595), NCI-H1618 (ATCC, cat. CRL-5879, RRID:CVCL_1480), NCI-H1876 (ATCC, cat. CRL-5902, RRID:CVCL_1503), DMS 114 (ATCC, cat. CRL-2066; RRID:CVCL_1174), NCI-H211 (ATCC, cat. CRL-5824; RRID:CVCL_1529), and SW 1271 (ATCC, cat. CRL-2177, RRID:CVCL_1716). The small cell lung cancer cell line COR-L88 was purchased from Sigma-Aldrich (cat. 92031917-1VL, RRID:CVCL_1141). The non-small cell lung cancer cell lines NCI-H226 (RRID:CVCL_1544) and NCI-H322M (RRID:CVCL_1557) were established at the NCI and grown from internal seed stocks. Pooled donor human umbilical vein endothelial cells (HUVEC, Lonza, cat. CC-2519) and human mesenchymal stem cells (hMSC, Lonza, cat. PT-2501) were purchased from Lonza (Walkersville, MD).
Cell Culture. All cells were maintained in an incubator at 37 degrees C and 5% CO2 with 95% humidity. […]

[1] = compound alone, run of 12/12/2019

| Compound | viability, T/C (compound 0.0316 µM) | viability, T/C (compound 0.1 µM) | viability, T/C (compound 0.316 µM) | viability, T/C (compound 1 µM) | viability, T/C (compound 3.16 µM) | viability, T/C (compound 10 µM) | IC50 (curve of compound) | viability, T/C (compound 0.003 µM) | viability, T/C (compound 0.0949 µM) | viability, T/C (compound 0.3 µM) | IC50 [1] | viability, T/C (compound 0.00949 µM) | viability, T/C (compound 0.03 µM) | viability, T/C (compound 0.949 µM) | viability, T/C (compound 3 µM) | viability, T/C (compound 94.9 pM) | viability, T/C (compound 0.0003 µM) |
| --- | --- | --- | --- | --- | --- | --- | --- | --- | --- | --- | --- | --- | --- | --- | --- | --- | --- |
| CC(C)n1c(=O)n(C)c2cnc3cc(F)c(-c4ccc(OCCCN5CCCCC5)nc4)cc3c21 | 60.1% and 96% and 88.1% | 80.2% and 82.2% and 112% | 70.4% and 78.7% and 83.2% | 73.2% and 102% and 112% | 76.8% and 85.2% and 87.2% | 56.8% and 79.3% and 85% | > 10 µM |  |  |  |  |  |  |  |  |  |  |
| CC1COCCN1c1cc(-c2ccnn2C)c2ccnc(-c3ccn[nH]3)c2n1 (configuration not stated) | 53.9% and 67.8% and 58.9% | 40.6% and 54% and 49.9% | 29.4% and 41.8% and 36% | 29.7% and 35.6% and 33.4% | 29.8% and 38.9% and 33.5% | 32.7% and 44.9% and 37.6% | 0.0431 µM and 0.144 µM and 0.0714 µM |  |  |  |  |  |  |  |  |  |  |
| CC[C@@]1(O)C(=O)OCc2c1cc1n(c2=O)Cc2cc3c(CN(C)C)c(O)ccc3nc2-1 |  |  |  |  |  |  |  | 89.7% [middle of 10 runs] | 67.4% [middle of 10 runs] | 51.5% [middle of 10 runs] | > 0.3 µM and 0.254 µM |  |  |  |  |  |  |
| CNCc1ccc(-c2cc(-c3nc(-c4ccc(S(=O)(=O)C(C)C)cc4)cnc3N)on2)cc1 |  |  |  |  |  |  | > 3 µM |  | 86.2% and 90.6% and 82.5% | 75.3% and 82.6% and 88.2% |  | 101% and 98.9% and 108% | 92% and 104% and 77.6% | 93% and 95.4% and 77.4% | 90.5% and 94.3% and 74.9% |  |  |
| COc1cc(C)[nH]c(=O)c1CN1CCc2c(Cl)cc(C(OC)C3COC3)c(Cl)c2C1=O (configuration not stated) | 104% and 96.2% and 98.2% | 87.7% and 103% and 84% | 89.9% and 91.7% and 80.2% | 74.3% and 84.4% and 89.6% | 93.3% and 91.8% and 102% | 82% and 96.2% and 93.1% | > 10 µM |  |  |  |  |  |  |  |  |  |  |
| COc1cc2c(cc1O)CCNC21CSC2c3c(OC(C)=O)c(C)c4c(c3C(COC1=O)N1C(O)C3Cc5cc(C)c(OC)c(O)c5C(C21)N3C)OCO4 (configuration not stated) |  |  |  |  |  |  |  | 7.2% [middle of 10 runs] |  |  | 1.56 nM [middle of 8 runs] |  |  |  |  | 90.7% [middle of 10 runs] | 90.7% [middle of 10 runs] |
| COc1ccc([C@@H](O)c2cc(-c3ncnc4cc(N5CCOCC5)ccc34)c(F)cc2Cl)nn1 | 94.5% and 86.9% and 89% | 82% and 74.6% and 84.6% | 79.5% and 68% and 94.4% | 61.6% and 63.9% and 62.2% | 38.2% and 58.7% and 52.9% | 33.5% and 34.7% and 43.3% | 1.82 µM and 3.81 µM and 2.7 µM |  |  |  |  |  |  |  |  |  |  |
| Cc1cc(C)c(CNC(=O)c2cc(-c3ccc(CN4CCOCC4)cc3)cc3c2cnn3C2CCCC2)c(=O)[nH]1 | 93.2% and 96.5% and 81.3% | 101% and 84.8% and 89% | 90.7% and 96.1% and 79.9% | 101% and 88.8% and 98.1% | 96.1% and 117% and 84.2% | 117% and 114% and 102% | > 10 µM |  |  |  |  |  |  |  |  |  |  |
| Cc1sc2c(c1C)C(c1ccc(Cl)cc1)=NC(CC(=O)Nc1ccc(O)cc1)c1nnc(C)n1-2 (configuration not stated) |  |  |  |  |  |  | > 3 µM |  | 122% and 129% and 130% | 112% and 114% and 116% |  | 106% and 134% and 101% | 114% and 110% and 109% | 86.2% and 95.3% and 76% | 75.4% and 80.9% and 64% |  |  |

Reference: PubChem BioAssay AID1845211 (Molecular Pharmacology Branch, DTP, NCI, 2023)
